One block for each compound: values may come before it.
Assays:
[1] = tested on: acylethanolamide hydrolyzing enzyme (FAAH and an enzyme different from FAAH) in rat intestinal homogenate; assay: OEA and anandamide (acylethanolamide) hydrolysis in rat intestinal homogenate; assay type: biochemical; conditions: for inhibition of OEA hydrolysis: pH 7.0, 50 μM 3H-OEA, 20 min, inhibitor concentration not given ('same concentration')
Experimental: Enzymatic hydrolysis of OEA is investigated in an assay containing 5-500 μg of intestinal protein incubated with 1-500 μM of ^3H-OEA ([1-^3H-ethanolamine]OEA and dilutions thereof with non-radioactive OEA to obtain a specific activity of 0.1-100,000 dpm/pmol) or ^3H-anandamide ([1−^3H-ethanolamine]anandamide and dilutions thereof with non-radioactive anandamide to obtain a specific activity of 0.1-100,000 dpm/pmol) in a total volume of 100-500 μl of 10-100 mM buffer (pH 3-11), initially utilizing 100 mM Tris-HCl (pH 8.0) containing 0-2 mM EDTA and 0-5 mg/ml of fatty acid-free bovine serum albumin with or without addition of D-erythro-MAPP (or a related compound; dissolved in 1-10 μl ethanol) in a final concentration of 0.0001-1000 μM (1-10 μl ethanol is added to control assays). Incubations are carried out at 37° C. for 0-120 min and samples are withdrawn at 2-3 time points. The reaction in a sample is terminated by addition of 200-1000 μl of chloroform:methanol (1:1 v/v) and cooling on ice, followed by 10 min centrifugation at low speed, where after 50-250 μl of the upper phase is extracted and the radio-labeled product ethanolamine formed is quantified by liquid scintillation counting. […]
The reaction in a sample is terminated by addition of 400 μl chloroform:methanol (1:1 v/v) and cooling on ice, followed by 10 min centrifugation at low speed, where after 100 μl of the upper phase is extracted and the radio-labeled product ethanolamine formed is quantified by liquid scintillation counting. In another set of experiments the following assay conditions are adjusted—in order to be identical to those of the ceramidase assay (see example 1B)—by using 25 μg of protein from rat intestinal (jejunum) homogenate in a total volume of 100 μl, 50 μM of ^3H-oleoylethanolamide (OEA; 25.000 dpm) or ^3H-anandamide (AEA; 25.000 dpm), 100 mM citrate phosphate (7.0), 8 mM CHAPS. […] Incubation at 37° C. is carried out for 0 and 20 min after establishment of linearity of product formation within this time frame. […]

ceramidase = assay: Ceramide hydrolysis in rat intestinal homogenate; assay type: biochemical; conditions: for inhibition of ceramide hydrolysis: pH 7.0, 50 μM 14C-octanoyl-D-sphingosine, 25 μg protein, 20 min, inhibitor concentration not given ('same concentration')
Experimental: Enzymatic hydrolysis of ceramide is measured in an assay containing 5-500 μg of intestinal protein incubated with 1-5000 μM of ^14C-ceramide [(N-[1-^14C]acyl-D-erythro sphingosine (with the acyl group being from six to twenty carbon atoms) and dilutions thereof with non-radioactive ceramide to obtain a specific activity of 0.1-100,000 dpm/pmol], which is sonicated in buffer or added in 5-50 μl of ethanol, to a total volume of 50-500 μl of 10-100 mM buffer (pH 3-11) initially utilizing 100 mM Tris-HCl (pH 8.0) containing 0-100 mM CHAPS, 0-10 mM DTT, 0-1% Nonidet P-40, 0-5 mg/ml of bovine serum albumin, and 0-500 mM NaCl with or without addition of D-erythro-MAPP (or a related compound; dissolved 1-10 μl ethanol) in a final concentration of 0.0001-1000 μM (1-10 μl ethanol is added to control assays). Incubations are carried out at 37° C. for 0-120 min and samples are withdrawn at 2-3 time points. The reaction in each sample is terminated by addition of 200-1000 μl of methanol:chloroform:heptane (28:25:20 v/v/v) and 50-400 μl of potassium carbonate buffer (pH 10). After mixing, the samples are centrifuged 1-20 min at low speed centrifugation and 50-400 μl of the upper phase is extracted and the radio-labeled product, free fatty acid, in the upper phase is quantified by liquid scintillation counting. From selected samples, another 50-400 μl aliquot of the upper phase as well as 50-400 μl of the lower phase are evaporated to dryness under a stream of nitrogen, re-dissolved in 10-200 μl of chloroform:methanol (19:1 v/v) and applied on thin-layer chromatography plates, eluted in chloroform:methanol:acetic acid (94:1:5 v/v/v) followed by quantification of the distribution of the radiolabeled free fatty acid in the two phases using a Phosphorlmager scanner (STORM; Molecular Dynamics, Sunnyvale, Calif., USA) and ImageQuant software (GE Health Care, Amersham, United Kingdom). The distribution of released fatty acid is used to calculate the total amount of product formed in each sample. […]

dietary obese mice = assay: Sub-chronic food intake, water intake and body weight study in dietary obese mice; assay type: in vivo; conditions: for cumulative food intake: D-threo-NMAPPD 30 mg/kg, OEA 2 mg/kg, or both mixed, high-fat diet, mean±SEM
Experimental: Food intake studies are performed with male Sprague-Dawley rats (250-350 g) or male C57BL/6J mice (Charles River, Sulzfeld, Germany). […] These animals are left on the diet for 12 weeks before the experiment is commenced. The animals are group randomized into weight-matched groups of n=4-12 to receive up to four administrations (0.1-10 ml/kg p.o., i.p., s.c., or i.v.) of a test compound (e.g. MAPP or NMAPPD) or vehicle (saline optionally with Tween 80, polyethylene glycol, DMSO, ethanol, Cremophor excipient) with at least seven days interval. All compounds are administered just prior to the beginning of the dark period optionally after a 24 h fasting period. Food intake (digital balance) and water intake (registered gravimetrically or by means of lick counts) and activity (consecutive beam breaks) are monitored for at least 12 hours following the time of injection. After the treatment, the animals are euthanized by use of CO2 followed by decapitation.
3C. Furthermore, a study with dietary obese mice was carried out. After 12 weeks on high-fat diet, animals were stratified according to weight. At day −3, animals were randomised in 5 groups (n=9-10 in each group) to participate in one of following drug treatment groups; vehicle (5% Tween 80, 5% polyethylene glycol, 90% saline), OEA 2 mg/kg, OEA 5 mg/kg, D-threo-NMAPPD 30 mg/kg, D-threo-NMAPPD 30 mg/kg+OEA 2 mg/kg (mixed). The animals received one intraperitoneal injection daily (2 ml/kg) of vehicle or drug(s) suspended in vehicle at […]. The experiment was preceded by a 3 day run-in period with mock injections and handling to habituate the animals to the injection paradigm. On day 0 the animals were dosed for the first time. All animals were fed high-fat diet ad lib—also during the treatment period. Body weight, food and water intake was measured every other day for the following 14 days depending on the animal's state.

diet-induced obese mice = conditions: 5 mg/kg OEA i.p. daily, from day 2 and on, refs (9,22); cited from earlier work
diet-induced obese rats = conditions: 5 mg/kg OEA i.p. daily, from day 2 and on, refs (9,22); cited from earlier work

- inhibition of OEA hydrolysis ([1]; 25 μg protein): 11%
- effect on AEA hydrolysis ([1]; pH 7.0, 50 μM 3H-anandamide, inhibitor concentration not clearly printed): unaffected
- inhibition of ceramide hydrolysis (ceramidase): approximately 24%
Compound: CCCCCCCCCCCCCC(=O)N[C@H](C)[C@@H](O)c1ccccc1 [D-erythro-MAPP, (1S,2R) D-erythro-N-myristoyl-2-amino-1-phenyl-propanol]

- inhibition of OEA hydrolysis ([1]; 25 μg protein): 30%
- dose dependence of inhibition of OEA hydrolysis ([1]; pH 7.0, increasing concentrations (FIG. 2C)): dose-dependent inhibition
- inhibition of ceramide hydrolysis (ceramidase): 30%
Compound: CCCCCCCCCCCCCC(=O)N[C@H](CO)[C@H](O)c1ccc([N+](=O)[O-])cc1 [D-threo-NMAPPD, (1R,2R) D-threo-N-myristoyl-2-amino-1-(4′-nitrophenyl)-1,3-propandiol]
- food intake versus vehicle (dietary obese mice; D-threo-NMAPPD 30 mg/kg i.p. daily (alone and with OEA 2 mg/kg), from day 1): consistently and significantly reduced
- water intake versus vehicle (dietary obese mice; daily i.p., D-threo-NMAPPD 30 mg/kg at day 1 and day 12, or with OEA 2 mg/kg (FIG. 4B)): significant decreased water intake
- loss of body weight (dietary obese mice; day 12, daily i.p., D-threo-NMAPPD 30 mg/kg alone or with OEA 2 mg/kg, vehicle 3.7%): 8.9%
- cumulative food intake (dietary obese mice; day 12, daily i.p.): 20.4 ± 1.2 g

Compound: CCCCCCCC/C=C\CCCCCCCC(=O)NCCO [OEA, oleoylethanolamide, reference compound]
- food intake versus vehicle (dietary obese mice; OEA 2 mg/kg i.p. daily, day 12): not significantly different
- food intake versus vehicle (dietary obese mice; OEA 5 mg/kg i.p. daily, day 5 and 7): significantly reduced food intake
- cumulative food intake (dietary obese mice; day 12, daily i.p.): 23.3 ± 1.0 g
- body weight change (diet-induced obese mice): reduced body weight change
- body weight change (diet-induced obese rats): reduced body weight change

Compound: NC(=O)c1cccc(-c2cccc(OC(=O)NC3CCCCC3)c2)c1 [URB597, cyclohexyl carbamic acid 3′-carbamoyl-biphenyl-3-yl ester, reference compound]
- effect on hydrolysis of OEA and AEA over pH range ([1]; 10 μM URB597, pH 5.5 to pH 10.5 (FIG. 3C)): to varying degrees were inhibited
- inhibition of acylethanolamide hydrolysis ([1]; 10 μM inhibitor, pH 7.0, 50 μM substrate, 25 μg protein, 20 min 37° C. (FIG. 2A)): approximately 79%
- effect on ceramide hydrolysis over pH range (ceramidase; 10 μM URB597, pH profile (FIG. 3C)): completely unaffected

Source: US20090054526A1, “INHIBITORS OF ANOREXIC LIPID HYDROLYSIS FOR THE TREATMENT OF EATING DISORDERS” (priority 2005, published 2009)
